# Data taken from patent US7399761B2, “Phthalazine derivatives with angiogenesis inhibiting activity” (Novartis AG, priority 2001, dated 2008).
# Assays:
# [1] = target: T1, Flt-1 VEGF-receptor tyrosine kinase (Homo sapiens, UniProt P17948); assay: Test for activity against Flt-1 VEGF-receptor tyrosine kinase; assay type: biochemical; details: kinase domain of Flt-1, poly(Glu,Tyr) 4:1, 8 μM [33P]-ATP, 15 minutes at room temperature
# T1 construct: 10 ng of the kinase domain of Flt-1
# T1 sequence (P17948 827-1158 limits assumed): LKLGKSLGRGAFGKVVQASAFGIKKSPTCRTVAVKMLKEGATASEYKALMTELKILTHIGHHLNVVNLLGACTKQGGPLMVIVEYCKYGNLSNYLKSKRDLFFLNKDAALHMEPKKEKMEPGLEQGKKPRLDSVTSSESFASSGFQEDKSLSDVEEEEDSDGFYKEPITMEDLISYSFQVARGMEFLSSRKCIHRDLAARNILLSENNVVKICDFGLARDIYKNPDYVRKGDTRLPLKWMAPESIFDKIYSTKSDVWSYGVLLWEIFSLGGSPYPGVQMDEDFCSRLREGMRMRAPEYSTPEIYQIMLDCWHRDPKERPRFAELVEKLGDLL
# Protocol: Test for activity against VEGF-receptor tyrosine kinase: the test is conducted using Flt-1 VEGF-receptor tyrosine kinase. The detailed procedure is as follows: 30 μl kinase solution (10 ng of the kinase domain of Flt-1, Shibuya et al., Oncogene 5, 519-24 [1990]) in 20 mM Tris.HCl pH 7.6, 3 mM manganese dichloride (MnCl2), 3 mM magnesium chloride (MgCl2) and 3 μg/ml poly(Glu,Tyr) 4:1 (Sigma, Buchs, Switzerland), 8 μM [^33P]-ATP (0.2 μCi/batch), 1% dimethyl sulfoxide, and 0 to 50 μM of the compound to be tested are incubated together for 15 minutes at room temperature. The reaction is then ended by the addition of 10 μl 0.25 M ethylenediaminetetraacetate (EDTA) pH 7. Using a multichannel dispenser (LAB SYSTEMS, USA), an aliquot of 20 μl is applied to a PVDF (=polyvinyl difluoride) Immobilon P membrane (Millipore, USA), which is incorporated into a Millipore microtitre filter manifold, and connected to a vacuum. Following complete elimination of the liquid, the membrane is washed 4 times successively in a bath containing 0.5% phosphoric acid (H3PO4), incubated for 10 minutes each time while shaking, then mounted in a Hewlett Packard TopCount Manifold and the radioactivity measured after the addition of 10 μl Microscint® (β-scintillation counter liquid; Packard USA). […]
# The IC50 values determined are given below, insofar as they have been accurately determined: […]
# Cyp2C8 = target: T2, Cyp2C8 (Homo sapiens, UniProt P10632); assay: CyP450-Inhibition, recombinant Cytochrome P450 isoenzymes, fluorometric assay; assay type: in vitro ADME; details: for IC50: recombinant CyP 450 enzyme, fluorescence-labelled substrate
# T2 construct: host or cells: insect cells (named in the general description as the expression system for P450 cDNAs)
# T2 sequence (P10632 1-490): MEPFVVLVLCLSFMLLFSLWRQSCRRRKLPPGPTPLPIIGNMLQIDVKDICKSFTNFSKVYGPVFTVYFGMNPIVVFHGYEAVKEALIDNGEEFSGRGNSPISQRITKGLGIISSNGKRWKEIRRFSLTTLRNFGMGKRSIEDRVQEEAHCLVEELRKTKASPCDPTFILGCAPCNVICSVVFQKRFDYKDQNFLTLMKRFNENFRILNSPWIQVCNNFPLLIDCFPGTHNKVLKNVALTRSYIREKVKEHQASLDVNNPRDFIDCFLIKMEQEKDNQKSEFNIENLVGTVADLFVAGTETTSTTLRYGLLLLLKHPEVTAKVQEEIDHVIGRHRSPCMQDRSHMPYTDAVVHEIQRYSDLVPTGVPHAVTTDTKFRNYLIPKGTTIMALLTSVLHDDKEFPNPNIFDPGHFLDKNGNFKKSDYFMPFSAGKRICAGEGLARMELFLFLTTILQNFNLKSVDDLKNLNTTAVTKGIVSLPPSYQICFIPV
# From the text: (§1) This can be shown according to the following test system: Human liver microsomes or high level expression of cDNAs encoding Cytochrome P450 in insect cells provide a flexible source of materials for several in vitro measurement methods. A microtiter plate-based, direct fluorometric assay for the activities of any one or more of the principal drug metabolizing enzymes CYP1A2, CYP2C8, CYP2C9, CYP2C19, CYP2D6 and/or CYP3A4 is used in order to assess the potential for drug candidates to inhibit cytochrome P450.
# (§2) Fluorescent marker substrates are incubated at concentrations close to their Michaelis-Men-ten affinity constant, Km. Inhibitors are tested in the 1 to 10 μM concentration range. 50% inhibition concentration (IC50 values) are estimated by non-linear regression of a two parameter model equation where the lower data limit is 0, i.e. the data are background corrected, and the upper data limit is 100, i.e. the data are range corrected. The equation assumes that y falls with increasing x. […] Extrapolation or interpolation of IC50 values beyond the concentration range studied are not provided.
# (§3) Details for the assays and the technology that forms the basis for the assays are known (see C. L. Crespi et al., Analytical Biochemistry 248, 188-190 (1997), and CIL. Crespi et al., J. Pharmacol. Toxicol. Methods 44, 325-331 (2000), and the references mentioend therein). For example, 3-cyano-7-ethoxycoumarin is used as fluorescent substrate for CyP1A2, CYP2C9, CYP2C19 and CYP2D6, 7-methoxy-4-trifluoromethylcoumarin is used for CYP2C9, resorufin benzyl ether for CYP3A4, 3-82-(N,N-diethyl-N-methylammonium)ethyl]-7-methoxy-4-methylcoumarin for CYP2D6.
# (§4) By the help of recombinant CyP 450 enzymes, the corresponding IC50 values for the compounds of formula I are determined. […] Description of the Assay: Fluorescence-labelled substrate compounds are incubated with different concentrations of test compound of formula I with recombinant Cytochrome P450 Isoenzymes. […] For details see above in the general description.
# Cyp2C9 = target: T3, Cyp2C9 (Homo sapiens, UniProt P11712); assay: as above; assay type: in vitro ADME; details: for IC50: recombinant CyP 450 enzyme, fluorescence-labelled substrate
# T3 construct: host or cells: insect cells (named in the general description as the expression system for P450 cDNAs)
# From the text: as §1, §2, §3, §4
# Cyp3A4 = target: T4, Cyp3A4 (Homo sapiens, UniProt P08684); assay: as above; assay type: in vitro ADME; details: for IC50: recombinant CyP 450 enzyme, fluorescence-labelled substrate
# T4 construct: host or cells: insect cells (named in the general description as the expression system for P450 cDNAs)
# From the text: as §1, §2, §3, §4
# T3 sequence (P11712 whole entry): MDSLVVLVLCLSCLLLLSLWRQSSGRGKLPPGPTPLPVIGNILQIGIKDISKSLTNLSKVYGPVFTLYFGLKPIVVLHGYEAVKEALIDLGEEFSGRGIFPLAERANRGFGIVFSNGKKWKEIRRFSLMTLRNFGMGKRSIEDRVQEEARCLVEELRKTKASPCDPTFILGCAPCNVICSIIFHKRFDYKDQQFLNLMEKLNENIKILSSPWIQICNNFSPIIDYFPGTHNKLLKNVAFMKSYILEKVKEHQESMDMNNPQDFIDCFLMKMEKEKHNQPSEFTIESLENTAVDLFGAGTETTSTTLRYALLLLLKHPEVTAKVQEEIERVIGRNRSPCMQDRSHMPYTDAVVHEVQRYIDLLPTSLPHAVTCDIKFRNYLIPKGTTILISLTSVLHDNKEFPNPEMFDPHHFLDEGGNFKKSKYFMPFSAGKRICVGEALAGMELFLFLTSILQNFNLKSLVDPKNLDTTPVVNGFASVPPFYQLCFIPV
# T4 sequence (P08684 whole entry): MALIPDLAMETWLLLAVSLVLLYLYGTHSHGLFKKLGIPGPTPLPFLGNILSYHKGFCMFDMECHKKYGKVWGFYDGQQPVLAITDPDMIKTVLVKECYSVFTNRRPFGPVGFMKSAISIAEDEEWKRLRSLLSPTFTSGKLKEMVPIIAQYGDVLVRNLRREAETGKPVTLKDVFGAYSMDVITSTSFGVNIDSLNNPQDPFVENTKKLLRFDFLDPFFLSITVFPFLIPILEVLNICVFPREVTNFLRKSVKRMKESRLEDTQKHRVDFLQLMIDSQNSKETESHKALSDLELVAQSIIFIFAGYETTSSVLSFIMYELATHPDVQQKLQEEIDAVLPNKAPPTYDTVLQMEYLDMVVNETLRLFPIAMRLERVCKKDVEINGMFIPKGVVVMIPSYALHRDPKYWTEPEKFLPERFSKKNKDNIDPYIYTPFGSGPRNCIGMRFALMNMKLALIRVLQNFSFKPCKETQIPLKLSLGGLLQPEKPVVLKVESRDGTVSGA
IC50 [1],IC50 (Cyp2C8),IC50 (Cyp2C9),IC50 (Cyp3A4),Compound,further results
1.2 µM,,,,COc1cc(Cc2nnc(N[C@H]3CC[C@H](C(C)C)CC3)c3ccccc23)ccn1 [Example 1 d)],
,5 µM,< 1 µM,< 1 µM,"CCc1ccc(Nc2nnc(Cc3ccncc3)c3ccccc23)cc1Br [WO 00/59509 (Ex. 14 q), reference compound]",
,,,,"CC(C)[C@H]1CC[C@H](Nc2nnc(Cc3ccnc(O)c3)c3ccccc23)CC1 [Example 1, trans 1-(4-Isopropyl-cyclohexylamino)4-[2-hydroxy-(pyridin-4-yl)methyl]-phthalazine]",melting point: 266 to 267 °C (dec.)
1.9 µM,,,,"CCc1ccc(Nc2nnc(Cc3ccnc(OC)c3)c3ccccc23)cc1Br [Example 2 d), 1-(3-Bromo-4ethyl-anilino)-4-[2-methoxy-(pyridin-4-yl)-methyl]-phthalazine]",
,> 10 µM,3.5 µM,2.8 µM,CCc1ccc(Nc2nnc(Cc3ccc(=O)[nH]c3)c3ccccc23)cc1Br [Ex. 8],lower inhibition when compared with Ex. 14 q from WO 00/59509 (Cyp2C8; ratio of IC50 values): more than two-fold; lower inhibition when compared with Ex. 14 q from WO 00/59509 (Cyp2C9; ratio of IC50 values): more than two-fold; lower inhibition when compared with Ex. 14 q from WO 00/59509 (Cyp3A4; ratio of IC50 values): more than two-fold
